In US8410078B2, “Composition and methods to treat cardiac diseases” (University of Connecticut, priority 2006, dated 2013):

Legend:
cardiac P2X receptor = experiment: Whole-cell voltage clamp of P2 agonist-induced current in WT ventricular myocytes; format: cell-based, mouse
Excerpt: (§1) Mice displaying the CSQ model of severe cardiomyopathy and heart failure were bred and maintained by methods known in the art. The CSQ transgenic (TG) mice were originally provided by Dr. Larry Jones (Krannert Institute of Cardiology, Indiana University School of Medicine, Indiana), and developed hypertrophy followed by a lethal heart failure phenotype with death near the age of 3 months. Ventricular myocytes were obtained from 3-month old wild type (WT) and CSQ mice of either sex (26 WT, 47 TG) by an enzymatic dissociation procedure. Briefly, the hearts were rapidly excised from mice that had been anesthetized with pentobarbital and treated with 1000 Units of heparin. The aorta was cannulated and the heart perfused in a Langendorff apparatus with oxygenated (95% O2/5% CO2) Ca^2+-free solution (37° C.) for 5 minutes at a rate of 2.5 ml/min. The solution composition was: 126 mM NaCl, 4.4 mM KCl, 1.0 mM MgCl2, 18 mM NaHCO3, 11 mM Glucose, 4 mM HEPES, and 3 mM BDM (2,3-butanedione monoxime), (pH 7.3 adjusted with NaOH). Thereafter, the perfusing solution was changed to that containing 25 μM CaCl2 and liberase (70 μg/ml, Roche Molecular Biochemicals, Inc.) for 8-10 minutes. Cells were sedimented by gravity for 10-15 minutes and the pellet was resuspended in 200 μM Ca^2+-containing Tyrode's solution (containing 3 mM BDM), allowed to settle for 30 minutes at room temperature, and suspended with Tyrode's solution containing: 135 mM NaCl, 5.4 mM KCl, 1.0 mM CaCl2, 1.0 mM MgCl2, 10 mM HEPES and 10 mM dextrose (pH 7.4 adjusted with NaOH). The experiments were carried out at room temperature (22-23° C.) and were completed within 4-6 hours after myocyte isolation.
The whole cell patch-clamp technique was used for these experiments. Electrodes were prepared from borosilicate glass pipettes (1.2 mm i.d.) with a two step pulling procedure and filled with pipette solution. The pipette was connected via an Ag—AgCl wire to the head stage of an amplifier (List EPC-7, Medical Systems, Greenvale, N.Y.) controlled by a computer and Axon pClamp™ software. For voltage clamp experiments, the electrodes were filled with a solution containing: 135 mM cesium aspartate, 5 mM NaCl, 5 mM Mg2ATP, 10 mM HEPES, and 10 mM EGTA (pH 7.3 adjusted with CsOH) with or without 2 mM GDPβS. Electrode resistances were 2-4 MΩ. As soon as electrical contact was established, the superfusion medium was changed to a modified Tyrode's solution (5.4 mM KCl was omitted and 10 mM CsCl and 5 μM ouabain were added to Tyrode's solution to block K^+ currents and the Na/K pump current, respectively). In quantifying the P2 agonist-induced current, the Tyrode's solution contained the indicated concentration of each agent. In studying the effect of a P2 receptor antagonist, both agonist and antagonist were co-applied at the indicated concentrations. The voltage clamp protocol used was a ramp voltage protocol from −100 mV holding potential to +50 mV. The ramp protocol was applied to cells at 20 s intervals for 1 minute. Three current traces from −100 mV to 50 mV were averaged to construct the I-V relationship.

CSQ mice = experiment: Chronic mini-pump administration in CSQ mice: lifespan and cardiac hypertrophy; format: in vivo, mouse
Excerpt: as §1
Cardiac myocyte cross-section area was quantified by methods known in the art. […] The images of cross-sectioned cells showing consistently round shapes were captured with Macrofire® PictureFrame (Optronics, Goleta, Calif.) and cross-section area measured with ImageProPlus® (MediaCybernetics, Silver Spring, Md.). Typically, 50 to 100 cross-sectional areas were determined and averaged per heart. […]

**Q.** Which “Effect of GDPβS on MRS2339-evoked current density” value (cardiac P2X receptor; at +50 mV) does the source give for `Nc1nc(Cl)nc2c1ncn2C1[C@H]2C[C@@]2(COP(=O)(O)O)[C@@H](O)[C@H]1O` (stereo partly drawn) [MRS2339, (1′S,2′R,3′S,4′R,5′S)-4-(6-amino-2-chloro-9H-purin-9-yl)-1-[phosphoryloxymethyl]bicyclo[3.1.0]hexane-2,3-diol] here?
**A.** The value was “no difference”.

**Q.** And the “MRS2339-evoked current density in the absence of GDPβS” value (cardiac P2X receptor; at −100 mV)?
**A.** The value was −0.73±0.15 pA/pF.

**Q.** And the “MRS2339-evoked current density with GDPβS” value (cardiac P2X receptor; at −100 mV)?
**A.** Its value is −0.66±0.10 pA/pF.

**Q.** What about the Median lifespan (CSQ mice; 3 μM solution, about 6 μl per day for 28 days via mini-pump) of the same molecule?
**A.** The Median lifespan was 115 days.

**Q.** What about the “Cardiac myocyte cross-section area” value (CSQ mice; chronic mini-pump treatment) of the same molecule?
**A.** Its value is 281±15 μm^2.

**Q.** And the “Heart weight/body weight ratio” value (CSQ mice; chronic mini-pump treatment)?
**A.** The value was 10.5±1.38.
